Measurements as given in PubChem BioAssay (NCI).
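Grown in 96-well plates, cells were treated for 48 hours with each compound at five concentrations. Insufficient inhibition: endpoint recorded as highest concentration tested. GI50: concentration for 50% inhibition of growth. TGI: concentration producing complete growth inhibition.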

Experiments:
Assay in all cases: NCI anticancer screen, dose series, 48 h
[1] = test system: MDA-N
[2] = test system: HS 578T breast
[3] = test system: UACC-62 melanoma
[4] = test system: OVCAR-4 ovarian
[5] = test system: SF-268 CNS
[6] = test system: SK-MEL-28 melanoma
[7] = test system: DU-145 prostate
[8] = test system: SK-OV-3 ovarian
[9] = test system: MALME-3M melanoma
[10] = test system: RXF 393 renal

| Structure (SMILES) | TGI [1] [µM] | TGI [2] [µM] | TGI [3] [µM] | TGI [4] [µM] | TGI [5] [µM] | TGI [6] [µM] | TGI [7] [µM] | TGI [8] [µM] | TGI [9] [µM] | TGI [10] [µM] | GI50 [3] [µM] | GI50 [4] [µM] | GI50 [5] [µM] | GI50 [6] [µM] | GI50 [7] [µM] | GI50 [2] [µM] | GI50 [10] [µM] | GI50 [8] [µM] | GI50 [9] [µM] |
| --- | --- | --- | --- | --- | --- | --- | --- | --- | --- | --- | --- | --- | --- | --- | --- | --- | --- | --- | --- |
| OC1(c2ccc(Cl)cc2)c2ccccc2C2=NCc3ccccc3CN21 (stereo not drawn) | 26.5 | 32.5 | 26.7 | 25.6 | 25.3 | 9.58 | 34.7 | 21.2 | 27.1 | – | – | – | – | – | – | – | – | – | – |
| O=c1c(S(=O)(=O)Oc2ccccc2)coc2cc(F)ccc12 | > 100 | > 100 | > 100 | > 100 | > 100 | > 100 | – | > 100 | > 100 | > 100 | – | – | – | – | – | – | – | – | – |
| N#CI1OC(C(F)(F)F)(C(F)(F)F)c2ccccc21 | – | – | 38.8 | 30.6 | 73.9 | 37.4 | 38.4 | > 100 | – | 32.4 | – | – | – | – | – | – | – | – | – |
| CCCN(CCC)c1c([N+](=O)[O-])cc(C(=O)N(C)C)cc1[N+](=O)[O-] | – | – | – | 29.4 | > 100 | > 100 | – | > 100 | > 100 | – | – | – | – | – | – | – | – | – | – |
| CC(C)(Oc1ccc(C(=O)c2ccc(Cl)cc2)cc1Cl)C(=O)N1CCN(c2ccccc2)CC1 | – | – | > 100 | – | > 100 | > 100 | – | > 100 | > 100 | – | – | – | – | – | – | – | – | – | – |
| O=[N+]([O-])c1ccc(Cl)cc1N/N=C/c1cccs1 | > 100 | > 100 | > 100 | > 100 | > 100 | > 100 | > 100 | > 100 | – | > 100 | – | – | – | – | – | – | – | – | – |
| Clc1cccc(N=C/C=C/Nc2cccc(Cl)c2)c1 | 26.8 | > 100 | – | > 100 | – | 29.6 | 96.2 | – | – | 52.5 | – | – | – | – | – | – | – | – | – |
| CCCCNCC(O)c1cc(-c2ccc(C(F)(F)F)cc2)nc(-c2ccc(C(F)(F)F)cc2)c1 (stereo not drawn) | – | – | 3.67 | 3.93 | 3.89 | 3.81 | 3.65 | – | – | – | 1.89 | 2.11 | 1.97 | 2.08 | 2.02 | – | – | – | – |
| Oc1ccccc1C=Nc1ccccc1N=Cc1ccccc1O | – | – | – | – | > 100 | > 100 | – | > 100 | > 100 | – | – | – | – | – | – | – | – | – | – |
| O=C1C=C(NCCc2cc(Br)c(O)c(Br)c2)C(=O)c2[nH]cnc21 | 33.6 | – | 40 | 94.9 | > 100 | > 100 | > 100 | > 100 | 30 | 98 | – | – | – | – | – | – | – | – | – |
| Clc1ccc(-c2nn3c(C45CC6CC(CC(C6)C4)C5)nnc3s2)cc1 | – | > 100 | > 100 | > 100 | > 100 | > 100 | > 100 | > 100 | > 100 | > 100 | – | – | – | – | – | – | – | – | – |
| COC1CCC(n2c([C@@H]3CCCC(=O)N3c3ccc(F)c(F)c3)nc3cc(-c4c(C)noc4C)ccc32)CC1 (stereo partly drawn) | – | 9.86 | 16.1 | 26.5 | 56.4 | 28.1 | 54.2 | 18.8 | 17.7 | 17.7 | 2.52 | 0.782 | 14.6 | 11.8 | 16.8 | 2.1 | 4.82 | 4.09 | 1.74 |
| O=C(NNCc1ccccc1O)c1ccccc1O | > 100 | – | 55.9 | > 100 | – | > 100 | 43.4 | 68.6 | > 100 | > 100 | – | – | – | – | – | – | – | – | – |
| COc1cc(C2C3=C(N=C4SC(C(C)=O)=C(C)N42)c2ccccc2CC3)cc(OC)c1OC (stereo not drawn) | > 100 | > 100 | > 100 | > 100 | > 100 | > 100 | > 100 | > 100 | – | > 100 | – | – | – | – | – | – | – | – | – |
| Cc1ccc(Nc2ccc(Nc3ccc(C)cc3S(=O)(=O)O)c3c2C(=O)c2ccccc2C3=O)c(S(=O)(=O)O)c1 | – | – | > 100 | > 100 | > 100 | > 100 | – | > 100 | > 100 | > 100 | – | – | – | – | – | – | – | – | – |
| COC(=O)C(N)CCCC(N)C(=O)NC(C)C(=O)NC(CCC(=O)NCCCNc1ccc([N+](=O)[O-])c2[nH]c3ccccc3c(=O)c12)C(N)=O (stereo not drawn) | – | – | 10.8 | 20.2 | 13.8 | 22 | 19.1 | 26.7 | – | 25.1 | – | – | – | – | – | – | – | – | – |
| COc1c(Cl)c(Cl)c(OC)c2c1C(=O)C=CC2=O | – | – | 30.4 | 28.9 | 30.6 | 34.7 | – | > 100 | 29.5 | 30.9 | – | – | – | – | – | – | – | – | – |
| CC1(CO)C(=O)OC12CCCCC2 (stereo not drawn) | – | – | > 100 | > 100 | > 100 | > 100 | – | > 100 | > 100 | – | – | – | – | – | – | – | – | – | – |
| Cn1c(=O)c2[nH]c(-n3nc(-c4ccccc4)cc3N)nc2n(C)c1=O | > 100 | – | 27 | 93.5 | > 100 | 57.3 | 45 | 20.4 | 47 | > 100 | – | – | – | – | – | – | – | – | – |

| Structure (SMILES) | TGI [1] [µM] | TGI [2] [µM] | TGI [3] [µM] | TGI [4] [µM] | TGI [5] [µM] | TGI [6] [µM] | TGI [7] [µM] | TGI [8] [µM] | TGI [9] [µM] | TGI [10] [µM] | GI50 [3] [µM] | GI50 [4] [µM] | GI50 [5] [µM] | GI50 [6] [µM] | GI50 [7] [µM] | GI50 [2] [µM] | GI50 [10] [µM] | GI50 [8] [µM] | GI50 [9] [µM] |
| --- | --- | --- | --- | --- | --- | --- | --- | --- | --- | --- | --- | --- | --- | --- | --- | --- | --- | --- | --- |
| CC(CN(C)C)C(=O)/C=C/c1ccc(Cl)c(Cl)c1 (stereo not drawn) | 6.03 | 29 | 3.69 | 19 | 4.14 | 16.5 | > 100 | 17.5 | – | 40.8 | – | – | – | – | – | – | – | – | – |
| CC1=CC(=O)/C(=C/N2CCNC2=S)C(=O)O1 | > 100 | > 100 | > 100 | > 100 | > 100 | – | > 100 | > 100 | – | > 100 | – | – | – | – | – | – | – | – | – |
| Cc1cnc2[nH]c(-c3cccc(Cl)c3)cc(=O)c2c1 | – | 20.5 | 63.5 | > 100 | 34.5 | > 100 | > 57.8 | > 100 | > 100 | 85.5 | – | – | – | – | – | – | – | – | – |
| CCOC(=O)CN(Cc1ccccc1)Cc1c(C(=O)c2ccccc2)c2ccccc2n1C(=O)c1ccccc1 | – | – | > 100 | > 100 | > 100 | > 100 | – | > 100 | > 100 | – | – | – | – | – | – | – | – | – | – |
| O=C1CC(Cl)c2c(Cl)sc(Cl)c21 (stereo not drawn) | 5.94 | > 27.9 | 4.66 | 10.3 | 5.51 | 4.58 | 7.13 | 33.3 | 6.63 | – | – | – | – | – | – | – | – | – | – |
| CC1CN=C(N(C)C(=O)Nc2ccc(Cl)c(Cl)c2)S1 (stereo not drawn) | > 100 | > 100 | – | > 100 | > 100 | 37.9 | > 100 | > 100 | > 100 | – | – | – | – | – | – | – | – | – | – |
| O=c1cc2cc(O)[nH]c(=O)c2c(O)[nH]1 | – | – | > 100 | > 100 | > 100 | – | – | > 100 | > 100 | > 100 | – | – | – | – | – | – | – | – | – |
| Cc1nn(C(=O)c2ccc(Cl)cc2)c2c1C(c1ccco1)SC(N)=N2 (stereo not drawn) | > 10 | > 10 | > 10 | > 10 | > 10 | > 10 | > 10 | > 10 | – | > 10 | – | – | – | – | – | – | – | – | – |
| CC(=O)OC1C(O)C(C)OC(OC(=O)C2CCC3C(C2)OC2(CC(OC(=O)/C=C/c4ccccc4)C(C)CO2)C32CO2)C1OC1OC(C)C(O)C(O)C1O (stereo not drawn) | – | – | 0.114 | 0.0706 | 0.15 | 0.0685 | – | 0.213 | 0.093 | 0.208 | – | – | – | – | – | – | – | – | – |
| O=Cc1cc(O)c(O)c(/C=N/n2c3ccccc3c3ccccc32)c1 | – | > 100 | 22.9 | 13.5 | 20 | 42.1 | 49 | 21.1 | 30.8 | 23.5 | – | – | – | – | – | – | – | – | – |
| Cc1oc2c(C)c3oc(=O)cc(C)c3cc2c1CN | – | – | > 100 | > 100 | > 100 | > 100 | – | 79.2 | 86 | > 100 | – | – | – | – | – | – | – | – | – |
| C1=C[C@]2(CCC13OCCO3)COc1ccccc12 | > 100 | – | > 100 | > 100 | – | > 100 | > 100 | > 100 | – | – | – | – | – | – | – | – | – | – | – |
| COc1cc(C(CC(OC)OC)=C(C#N)C#N)cc(OC)c1OC | – | – | > 100 | – | > 100 | > 100 | – | > 100 | 76.9 | > 100 | – | – | – | – | – | – | – | – | – |
| CCc1cc2c(oc3c4ccccc4ccc23)c(=O)[nH]1 | > 10 | > 10 | > 10 | > 10 | > 10 | – | > 10 | > 10 | – | > 10 | – | – | – | – | – | – | – | – | – |
| NC(CNc1ccc(O)cc1)C(=O)O (stereo not drawn) | – | – | 49.4 | 31.7 | > 100 | > 100 | – | > 100 | > 100 | > 100 | – | – | – | – | – | – | – | – | – |
| C/C(=C/c1c(C)[nH]c(=O)[nH]c1=O)C(=O)O | – | – | > 1380 | > 1380 | > 1380 | > 1380 | – | > 1370 | > 1380 | > 1380 | – | – | – | – | – | – | – | – | – |
| COc1cc(C)cc(OC)c1/C=C/C(=O)O | > 100 | > 100 | > 100 | > 100 | > 100 | > 100 | – | – | > 100 | > 100 | – | – | – | – | – | – | – | – | – |
| CC(CC(C)(C)[N+](C)(C)C)[N+](C)(C)C (stereo not drawn) | > 100 | – | > 100 | > 100 | > 100 | > 100 | > 100 | > 100 | – | > 100 | – | – | – | – | – | – | – | – | – |
| COc1ccc(/C=C/C(c2cc(OC)c(OC)c(OC)c2)n2cncn2)cc1O (stereo not drawn) | – | – | > 100 | > 100 | > 100 | > 100 | – | – | – | – | 0.0476 | 7.05 | 0.059 | 3.62 | – | – | – | – | – |
